Measurements from the NIST ThermoML archive (doi:10.1021/je501141e).
Several values for one entry are separate records, joined by “and”; a condition that tells them apart may be missing. Identical values can stand only once. ± gives the expanded uncertainty stated by the source.

Columns and labels:
[1] = 101.33 kPa, Liquid; for viscosity: Concentric cylinders viscometry; for speed of sound: Sing-around technique in a fixed-path interferometer; for mass density: Vibrating tube method
[2] = xn = mol fraction of the nth substance listed; conditions: 100 kPa, Liquid, Concentric cylinders viscometry, x2 = 0

CC(CC(C)(C)C)CC(C)(C)CC(C)(C)C (configuration not stated) [2,2,4,4,6,8,8-heptamethylnonane]
[1]
Conditions | mass density [kg/m3] | speed of sound [m/s] | viscosity
293.15 K | 784.48 ± 0.21 | 1285.8 ± 1.4 | 3.71 ± 0.03 mPa·s
303.15 K | 777.78 ± 0.22 | 1248.6 ± 1.4 | 2.93 ± 0.03 mPa·s
313.15 K | 771.07 ± 0.22 | 1212 ± 1.4 | 2.37 ± 0.03 mPa·s
323.15 K | 764.34 ± 0.22 | 1176.2 ± 1.4 | 1.95 ± 0.02 mPa·s
333.15 K | 757.59 ± 0.22 | 1141 ± 1.4 | 1.64 ± 0.02 mPa·s
343.15 K | 750.83 ± 0.22 | 1106.5 ± 1.4 | 1.39 ± 0.02 mPa·s
353.15 K | 743.9 ± 0.4 | – | 1.19 ± 0.02 mPa·s
363.15 K | 737 ± 0.4 | – | 1.04 ± 0.02 mPa·s
373.15 K | 730.2 ± 0.4 | – | 0.91 ± 0.02 mPa·s and 0.913 ± 0.021 mPa·s

CC(CC(C)(C)C)CC(C)(C)C [2,2,4,6,6-pentamethylheptane] + CC(CC(C)(C)C)CC(C)(C)CC(C)(C)C
[2]
Conditions | viscosity [mPa·s]
293.15 K | 1.31 ± 0.02
303.15 K | 1.11 ± 0.02
313.15 K | 0.948 ± 0.021
323.15 K | 0.82 ± 0.021
333.15 K | 0.715 ± 0.021
343.15 K | 0.632 ± 0.021
353.15 K | 0.562 ± 0.021
363.15 K | 0.505 ± 0.021
373.15 K | 0.459 ± 0.021

CC(CC(C)(C)C)CC(C)(C)C [2,2,4,6,6-pentamethylheptane]
[1]
Conditions | mass density [kg/m3] | speed of sound [m/s] | viscosity
293.15 K | 745.21 ± 0.19 | 1203.7 ± 1.3 | 1.31 ± 0.02 mPa·s
303.15 K | 737.93 ± 0.19 | 1164.9 ± 1.3 | 1.11 ± 0.02 mPa·s
313.15 K | 730.61 ± 0.19 | 1126.7 ± 1.2 | 0.94 ± 0.02 mPa·s and 0.948 ± 0.021 mPa·s
323.15 K | 723.26 ± 0.19 | 1089.3 ± 1.2 | 0.82 ± 0.02 mPa·s
333.15 K | 715.86 ± 0.2 | 1052.6 ± 1.2 | 0.715 ± 0.021 mPa·s and 0.71 ± 0.02 mPa·s
343.15 K | 708.42 ± 0.2 | 1016.5 ± 1.2 | 0.632 ± 0.021 mPa·s and 0.63 ± 0.02 mPa·s
353.15 K | 700.7 ± 0.4 | – | 0.562 ± 0.021 mPa·s and 0.56 ± 0.02 mPa·s
363.15 K | 693.1 ± 0.4 | – | 0.505 ± 0.021 mPa·s and 0.5 ± 0.02 mPa·s
373.15 K | 685.4 ± 0.4 | – | 0.459 ± 0.021 mPa·s and 0.45 ± 0.02 mPa·s
